Experimental data from patent publication US20080139558A1, “QUINOLONES USEFUL AS INDUCIBLE NITRIC OXIDE SYNTHASE INHIBITORS” (KALYPSYS, INC., priority 2006, published 2008).

These molecules were tested against T1, human iNOS (Homo sapiens, UniProt P35228) (assay: DAN assay of nitric oxide production (hiNOS)). Details: enzyme expressed in HEK293 cells transiently transfected with human iNOS.
T1 construct: expressed in transfected cells; host or cells: HEK293
Format: cell-based
Outline: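 Human iNOS transiently expressed in HEK293 cells; NO production quantified as nitrite via 2,3-diaminonaphthalene reaction forming fluorescent naphthotriazole.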

T1 sequence (P35228 whole entry): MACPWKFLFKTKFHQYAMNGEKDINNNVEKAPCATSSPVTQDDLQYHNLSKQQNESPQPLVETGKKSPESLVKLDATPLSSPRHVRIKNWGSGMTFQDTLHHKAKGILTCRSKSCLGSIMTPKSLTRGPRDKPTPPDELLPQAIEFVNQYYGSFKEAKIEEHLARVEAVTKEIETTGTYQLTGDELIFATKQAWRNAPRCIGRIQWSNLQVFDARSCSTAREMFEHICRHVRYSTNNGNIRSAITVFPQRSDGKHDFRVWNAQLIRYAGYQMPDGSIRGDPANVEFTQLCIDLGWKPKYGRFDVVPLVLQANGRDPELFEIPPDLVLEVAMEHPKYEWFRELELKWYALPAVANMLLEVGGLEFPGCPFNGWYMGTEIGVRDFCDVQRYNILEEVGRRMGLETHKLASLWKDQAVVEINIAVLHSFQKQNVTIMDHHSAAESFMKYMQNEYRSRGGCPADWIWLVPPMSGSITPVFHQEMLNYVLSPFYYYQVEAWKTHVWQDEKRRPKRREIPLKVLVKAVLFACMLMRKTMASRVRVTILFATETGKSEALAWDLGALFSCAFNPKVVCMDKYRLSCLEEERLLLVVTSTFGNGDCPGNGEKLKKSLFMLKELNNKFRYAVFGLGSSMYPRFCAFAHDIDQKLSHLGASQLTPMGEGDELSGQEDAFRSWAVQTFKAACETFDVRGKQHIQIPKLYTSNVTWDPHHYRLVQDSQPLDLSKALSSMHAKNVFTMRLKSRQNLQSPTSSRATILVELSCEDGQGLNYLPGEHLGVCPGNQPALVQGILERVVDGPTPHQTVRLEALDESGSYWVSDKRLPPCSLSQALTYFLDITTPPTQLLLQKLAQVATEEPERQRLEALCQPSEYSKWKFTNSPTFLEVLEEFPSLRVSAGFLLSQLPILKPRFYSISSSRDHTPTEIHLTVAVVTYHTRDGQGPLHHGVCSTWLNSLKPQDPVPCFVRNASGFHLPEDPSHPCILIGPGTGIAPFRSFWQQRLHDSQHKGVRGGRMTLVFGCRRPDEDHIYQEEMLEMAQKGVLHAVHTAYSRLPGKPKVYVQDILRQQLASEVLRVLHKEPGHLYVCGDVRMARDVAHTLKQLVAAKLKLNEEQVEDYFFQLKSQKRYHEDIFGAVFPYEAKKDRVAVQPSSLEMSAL

| SMILES | EC50 |
| --- | --- |
| Cc1ncsc1C(=O)N(c1cccc(Cl)c1)C(F)c1cc(=O)[nH]c2c(F)cccc12 (stereo not drawn) [Example 253, N-(3-Chlorophenyl)-N-(fluoro(8-fluoro-2-oxo-1,2-dihydroquinolin-4-yl)methyl)-4-methylthiazole-5-carboxamide] | ≤ 5 µM |
| COc1cccc(C(=O)N(Cc2cc(=O)[nH]c3c(F)cccc23)c2cccc(Cl)c2)c1 [Example 61, N-(3-Chlorophenyl)-N-((8-fluoro-2-oxo-1,2-dihydroquinolin-4-yl)methyl)-3-methoxybenzamide] | > 5 µM |
| Cc1cnc(C(=O)N(Cc2cc(=O)[nH]c3ccccc23)c2ccccc2)cn1 [Example 35, 5-Methyl-N-((2-oxo-1,2-dihydroquinolin-4-yl)methyl)-N-phenylpyrazine-2-carboxamide] | ≤ 5 µM |
| CCC(CC)c1nc2ccccc2n1Cc1cc(=O)[nH]c2c(F)c(F)ccc12 [Example 217, 7,8-Difluoro-4-((2-(pentan-3-yl)-1H-benzo[d]imidazol-1-yl)methyl)quinolin-2(1H)-one] | ≤ 5 µM |
| Cc1ncsc1C(=O)N(Cc1cc(=O)[nH]c2cccc(F)c12)c1cccc(Cl)c1 [Example 111, N-(3-Chlorophenyl)-N-((5-fluoro-2-oxo-1,2-dihydroquinolin-4-yl)methyl)-4-methylthiazole-5-carboxamide] | ≤ 5 µM |
| Cc1ncsc1-c1nc2ccccc2n1Cc1cc(=O)[nH]c2c(F)c(F)ccc12 [Example 119, 7,8-Difluoro-4-((2-(4-methylthiazol-5-yl)-1H-benzo[d]imidazol-1-yl)methyl)quinolin-2(1H)-one] | ≤ 5 µM |
| COc1ccc2[nH]c(=O)cc(CN(C(=O)c3ccco3)c3ccccc3)c2c1 [Example 19, N-((6-Methoxy-2-oxo-1,2-dihydroquinolin-4-yl)methyl)-N-phenylfuran-2-carboxamide] | ≤ 5 µM |
| CCc1nc2ccccc2n1Cc1cc(=O)[nH]c2c(F)c(F)ccc12 [Example 221, 7,8-Difluoro-4-((2-ethyl-1H-benzo[d]imidazol-1-yl)methyl)quinolin-2(1H)-one] | ≤ 5 µM |
| CC1CC1c1nc2ccccc2n1Cc1cc(=O)[nH]c2c(F)c(F)ccc12 (racemic) [Example 238, 7,8-Difluoro-4-((2-(2-methylcyclopropyl)-1H-benzo[d]imidazol-1-yl)methyl)quinolin-2(1H)-one] | > 5 µM |
| CCCc1nc2ccccc2n1Cc1cc(=O)[nH]c2c(F)c(F)ccc12 [Example 219, 7,8-Difluoro-4-((2-propyl-1H-benzo[d]imidazol-1-yl)methyl)quinolin-2(1H)-one] | ≤ 5 µM |
| Cc1ccccc1-c1nc2ccccc2n1Cc1cc(=O)[nH]c2c(F)c(F)ccc12 [Example 240, 7,8-Difluoro-4-((2-o-tolyl-1H-benzo[d]imidazol-1-yl)methyl)quinolin-2(1H)-one] | > 5 µM |
| Cc1cccnc1C(=O)N(Cc1cc(=O)[nH]c2c(F)cccc12)c1cccc(Cl)c1 [Example 73, N-(3-Chlorophenyl)-N-((8-fluoro-2-oxo-1,2-dihydroquinolin-4-yl)methyl)-3-methylpicolinamide] | > 5 µM |
| Cc1ncsc1C(=O)N(Cc1cc(=O)[nH]c2c(F)c(F)ccc12)c1ccc(C#N)c(Cl)c1 [Example 182, N-(3-Chloro-4-cyanophenyl)-N-((7,8-fluoro-2-oxo-1,2-dihydroquinolin-4-yl)methyl)-4-methylthiazole-5-carboxamide] | ≤ 5 µM |
| Cc1cccnc1C(=O)N(Cc1cc(=O)[nH]c2ccccc12)c1ccccc1 [Example 38, 3-Methyl-N-((2-oxo-1,2-dihydroquinolin-4-yl)methyl)-N-phenylpicolinamide] | > 5 µM |
| Cc1ncsc1-c1nc2ccccc2n1Cc1cc(=O)[nH]c2ccccc12 [Example 124, 4-((2-(4-Methylthiazol-5-yl)-1H-benzo[d]imidazol-1-yl)methyl)quinolin-2(1H)-one] | ≤ 5 µM |
| O=c1cc(Cn2c(Cl)nc3ccccc32)c2ccc(F)c(F)c2[nH]1 [Example 203, 4-((2-Chloro-1H-benzo[d]imidazol-1-yl)methyl)-7,8-difluoroquinolin-2(1H)-one] | > 5 µM |
| CN(C)c1ccc(C(=O)N(Cc2cc(=O)[nH]c3c(F)cccc23)c2cccc(Cl)c2)cc1 [Example 76, N-(3-Chlorophenyl)-4-(dimethylamino)-N-((8-fluoro-2-oxo-1,2-dihydroquinolin-4-yl)methyl)benzamide] | > 5 µM |
| Cc1ncsc1C(=O)N(Cc1cc(=O)[nH]c2c(F)cccc12)c1ccc(F)c(Cl)c1 [Example 85, N-(3-Chloro-4-fluorophenyl)-N-((8-fluoro-2-oxo-1,2-dihydroquinolin-4-yl)methyl)-4-methylthiazole-5-carboxamide] | ≤ 5 µM |
| O=c1cc(Cn2c(C3CCCCC3)nc3ccccc32)c2ccc(F)c(F)c2[nH]1 [Example 204, 4-((2-Cyclohexyl-1H-benzo[d]imidazol-1-yl)methyl)-7,8-difluoroquinolin-2(1H)-one] | > 5 µM |
| CC(C)(C)c1nc2ccccc2n1Cc1cc(=O)[nH]c2c(F)c(F)ccc12 [Example 202, 4-((2-tert-Butyl-1H-benzo[d]imidazol-1-yl)methyl)-7,8-difluoroquinolin-2(1H)-one] | > 5 µM |

| SMILES | EC50 |
| --- | --- |
| Cc1ncsc1C(=O)N(Cc1cc(=O)[nH]c2c(F)c(F)ccc12)c1ccccc1 [Example 175, N-Phenyl-N-((7,8-fluoro-2-oxo-1,2-dihydroquinolin-4-yl)methyl)-4-methylthiazole-5-carboxamide] | ≤ 5 µM |
| Cc1ncsc1C(=O)N(Cc1cc(=O)[nH]c2c(F)cccc12)c1ccccc1 [Example 97, N-Phenyl-N-((8-fluoro-2-oxo-1,2-dihydroquinolin-4-yl)methyl)-4-methylthiazole-5-carboxamide] | ≤ 5 µM |
| O=c1cc(Cn2c(C3CCCC3)nc3ccccc32)c2ccc(F)c(F)c2[nH]1 [Example 209, 4-((2-Cyclopentyl-1H-benzo[d]imidazol-1-yl)methyl)-7,8-difluoroquinolin-2(1H)-one] | ≤ 5 µM |
| O=c1cc(Cn2c(-n3ccnc3)nc3ccccc32)c2ccc(F)c(F)c2[nH]1 [Example 218, 4-((2-(1H-Imidazol-1-yl)-1H-benzo[d]imidazol-1-yl)methyl)-7,8-difluoroquinolin-2(1H)-one] | ≤ 5 µM |
| Cc1ncsc1C(=O)N(Cc1cc(=O)[nH]c2c(F)c(F)ccc12)c1cccc(Cl)c1 [Example 53, N-(3-Chlorophenyl)-N-((7,8-difluoro-2-oxo-1,2-dihydroquinolin-4-yl)methyl)-4-methylthiazole-5-carboxamide] | ≤ 5 µM |
| O=C(c1ccccn1)N(Cc1cc(=O)[nH]c2ccccc12)c1ccccc1 [Example 32, N-((2-Oxo-1,2-dihydroquinolin-4-yl)methyl)-N-phenylpicolinamide] | > 5 µM |
| CSc1nc2ccccc2n1Cc1cc(=O)[nH]c2c(F)c(F)ccc12 [Example 192, 7,8-Difluoro-4-((2-(methylthio)-1H-benzo[d]imidazol-1-yl)methyl)quinolin-2(1H)-one] | ≤ 5 µM |
| CC(C)c1nc2ccn(Cc3cc(=O)[nH]c4c(F)c(F)ccc34)cc-2n1 [Example 230, 7,8-Difluoro-4-((2-isopropyl-5H-imidazo[4,5-c]pyridin-5-yl)methyl)quinolin-2(1H)-one] | > 5 µM |
| Cc1nccn1-c1nc2ccccc2n1Cc1cc(=O)[nH]c2c(F)c(F)ccc12 [Example 208, 7,8-Difluoro-4-((2-(2-methyl-1H-imidazol-1-yl)-1H-benzo[d]imidazol-1-yl)methyl)quinolin-2(1H)-one] | ≤ 5 µM |
| O=c1cc(CN(c2cccc(Cl)c2)c2ccccn2)c2cccc(F)c2[nH]1 [Example 77, 4-(((3-Chlorophenyl)(pyridin-2-yl)amino)methyl)-8-fluoroquinolin-2(1H)-one] | > 5 µM |
| Cc1ncsc1C(=O)N(Cc1cc(=O)[nH]c2ccccc12)c1ccccc1 [Example 29, 4-Methyl-N-((2-oxo-1,2-dihydroquinolin-4-yl)methyl)-N-phenylthiazole-5-carboxamide] | > 5 µM |
| COc1cccc(N(Cc2cc(=O)[nH]c3c(F)cccc23)C(=O)c2scnc2C)c1 [Example 262, N-((8-Fluoro-2-oxo-1,2-dihydroquinolin-4-yl)methyl)-N-(3-methoxyphenyl)-4-methylthiazole-5-carboxamide] | ≤ 5 µM |
| O=C(c1cncs1)N(Cc1cc(=O)[nH]c2c(F)cccc12)c1cccc(Cl)c1 [Example 44, N-(3-Chlorophenyl)-N-((8-fluoro-2-oxo-1,2-dihydroquinolin-4-yl)methyl)thiazole-5-carboxamide] | > 5 µM |
| O=c1cc(Cn2c(C3CCCO3)nc3ccccc32)c2ccc(F)c(F)c2[nH]1 (racemic) [Example 250, 7,8-Difluoro-4-((2-(tetrahydrofuran-2-yl)-1H-benzo[d]imidazol-1-yl)methyl)quinolin-2(1H)-one] | ≤ 5 µM |
| O=C(c1cncs1)N(Cc1cc(=O)[nH]c2ccccc12)c1ccccc1 [Example 27, N-((2-Oxo-1,2-dihydroquinolin-4-yl)methyl)-N-phenylthiazole-5-carboxamide] | > 5 µM |
| Cc1ncsc1C(=O)N(Cc1cc(=O)[nH]c2c(F)cccc12)c1cccc(Cl)c1F [Example 187, N-(3-Chloro-2-fluorophenyl)-N-((8-fluoro-2-oxo-1,2-dihydroquinolin-4-yl)methyl)-4-methylthiazole-5-carboxamide] | ≤ 5 µM |
| Cc1ncsc1C(=O)N(Cc1cc(=O)[nH]c2c(F)c(F)ccc12)c1cccc(Cl)c1C [Example 184, N-(3-Chloro-2-methylphenyl)-N-((7,8-difluoro-2-oxo-1,2-dihydroquinolin-4-yl)methyl)-4-methylthiazole-5-carboxamide] | ≤ 5 µM |
| Cc1ncsc1C(=O)N(Cc1cc(=O)[nH]c2c(F)c(F)ccc12)c1cccnc1 [Example 263, N-((7,8-Difluoro-2-oxo-1,2-dihydroquinolin-4-yl)methyl)-4-methyl-N-(pyridin-3-yl)thiazole-5-carboxamide] | ≤ 5 µM |
| Cc1ncsc1C(=O)N(Cc1cc(=O)[nH]c2cc(F)ccc12)c1cccc(Cl)c1 [Example 51, N-(3-Chlorophenyl)-N-((7-fluoro-2-oxo-1,2-dihydroquinolin-4-yl)methyl)-4-methylthiazole-5-carboxamide] | > 5 µM |
